Non-standard residues stand in square brackets, D forms with d. Residues, ends and D or L forms follow the SMILES beside them. No end group written: not given here.
Experiments:
[1] = format: physicochemical
Protocol: (§1) Ras peptides were dissolved in either 100% dimethyl formamide (DMF, American Burdick and Jackson) or 100% dimethyl sulfoxide (DMSO, Fluka UV-spectroscopy grade) at a calculated peptide concentration of 1-4 mM. Following 1 minute in a Sonicor SC-200 bath sonicator at room temperature, the peptide solutions were vortexed, and then centrifuged for 5 minutes at room temperature in an Eppendorf microfuge to remove any undissolved material. 20 µL of the cleared peptide solutions were then added to 80 µL of Buffer D in a dilution series covering a range of peptide concentrations from 0.02 µM up to the maximum solubility limit for each peptide. In each dilution, the solvent concentration was maintained at 20%. These peptides solutions were then centrifuged for 5 minutes at room temperature at 10,000 x g, and the cleared supernatants were divided into 2 parts. One part of each cleared peptide dilution was used in a GAP competition assay: 40 µL was added to a 5 µL solution containing 0.1 mg/mL BSA plus 240 fmol Ha-ras p21-[γ-³²P]GTP. Reactions were initiated upon addition of 5 µL of diluted GAP (10 fmol), and analyzed as described above.
The other portion of the cleared peptide solution was measured spectrophotometrically to determine solubility and concentration of the peptides. Extinction coefficients were determined by measuring the absorbance at 277 nm of 2 peptides whose exact concentrations were quantitated by amino acid analysis. The extinction coefficients for peptide Ras 17-37 dissolved in buffer D/20% DMF or peptide Ras 91-103 (SEQ ID NO:14)dissolved in water/20% DMSO, were 2580 cm⁻¹M⁻¹ and 2230 cm⁻¹ M⁻¹, respectively. These values were used to determine the exact concentration for each peptide used at each point in the competition assay. In addition, peptide solubility was confirmed by comparing the light scattering at 600 nm for each peptide solution measured before and after centrifugation. Only concentrations reflecting 100% solubility were used in the dose response curves, and the maximum concentration used for each peptide competitor indicates the limit of solubility for that peptide.

[2] = molecular target: T1, Ras-GAP interaction (Bos taurus, UniProt P09851); test: Ras-GAP interaction inhibition assay (GAP-stimulated Ras GTPase, charcoal adsorption); format: biochemical, bovine; details: concentration of peptide required to reduce GAP stimulated Ras-GTP hydrolysis by 50%; 10 fmol GAP, 240 fmol Ha ras p21-GTP, 4 minutes at 24°C
T1 construct: made in house; host or cells: GAP: E. coli JM109 (plasmid pYO); Ha-Ras: E. coli RRllaci^q (plasmid pRas[Gly12 Ala59])
T1 sequence (P09851 1-1044): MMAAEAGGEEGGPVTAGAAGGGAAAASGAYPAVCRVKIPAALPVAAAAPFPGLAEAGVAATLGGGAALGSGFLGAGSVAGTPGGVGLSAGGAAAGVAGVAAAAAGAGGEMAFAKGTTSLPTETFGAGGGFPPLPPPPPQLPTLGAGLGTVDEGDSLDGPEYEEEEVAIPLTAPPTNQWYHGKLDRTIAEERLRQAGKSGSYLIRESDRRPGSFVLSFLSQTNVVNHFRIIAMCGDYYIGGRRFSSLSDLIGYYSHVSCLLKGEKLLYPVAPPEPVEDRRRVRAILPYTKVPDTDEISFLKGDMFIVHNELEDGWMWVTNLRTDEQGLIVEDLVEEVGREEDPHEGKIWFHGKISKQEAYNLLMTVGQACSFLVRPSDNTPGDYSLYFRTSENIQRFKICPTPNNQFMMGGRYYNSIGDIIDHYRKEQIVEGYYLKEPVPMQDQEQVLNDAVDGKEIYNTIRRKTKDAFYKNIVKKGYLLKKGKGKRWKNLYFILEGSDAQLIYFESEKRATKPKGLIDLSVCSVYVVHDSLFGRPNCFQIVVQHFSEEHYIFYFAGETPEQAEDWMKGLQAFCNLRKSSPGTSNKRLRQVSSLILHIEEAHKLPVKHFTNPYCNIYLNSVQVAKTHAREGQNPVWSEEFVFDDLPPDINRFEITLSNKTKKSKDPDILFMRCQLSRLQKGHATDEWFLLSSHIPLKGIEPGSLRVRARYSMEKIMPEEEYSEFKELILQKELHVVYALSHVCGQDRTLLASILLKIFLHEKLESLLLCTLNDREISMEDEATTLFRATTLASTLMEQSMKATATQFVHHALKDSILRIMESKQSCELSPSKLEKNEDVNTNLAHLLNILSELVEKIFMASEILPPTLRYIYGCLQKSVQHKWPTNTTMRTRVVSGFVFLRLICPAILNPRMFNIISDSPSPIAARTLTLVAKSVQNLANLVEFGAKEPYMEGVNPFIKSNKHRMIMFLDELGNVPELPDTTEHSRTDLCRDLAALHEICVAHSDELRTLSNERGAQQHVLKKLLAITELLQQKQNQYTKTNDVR
Protocol: The activity of the synthetic peptides of the present invention, as inhibitors of the interaction of ras with GAP was determined in an assay which measures GAP dependent, Ras GTPase activity. Bovine GAP was either purified from fresh bovine brains or recombinantly produced in E. coli. It is understood that the methods of the present invention may utilize either the recombinant full length GAP or the bovine brain derived GAP. In addition, GAP from other species, such as human and mouse, may be substituted for bovine GAP since they share about 95% amino acid homology. Truncated recombinant forms of GAP are also suitable for use in the Ras-GAP interaction assay [Marshall, M.S., et al., (1989), EMBO J., 8, pp1105-1110]. However, for the screening of synthetic peptides for their ability to block the Ras-GAP interaction, the recombinant, full length GAP is preferred.
The Ras protein utilized in the Ras-GAP GTPase assay of the present invention is Harvey ras (Ha-ras). It is understood that other forms of Ras protein are suitable for use in the present invention. Other suitable forms of Ras protein include, but are not limited to, Kirsten Ras, yeast S. cerevisiae RAS, and N-Ras. Furthermore, it is readily apparent to those skilled in the art that any form of Ras protein which is capable of interacting with GAP is suitable for use in the Ras-GAP GTPase assay.
Ras GTPase activity was measured by the charcoal adsorption procedure. Each 50 µL reaction contained 10 fmol purified GAP, 240 fmol Ha ras p21-[γ ³²P] GTP and 1 mg/mL BSA in buffer D. Varying amounts of the competing peptides were added as indicated. Prewarmed reactions (24°C) were initiated by the addition of GAP, then incubated for 4 minutes at 24°C. The reactions were terminated by the addition of 5 volumes of ice cold 5% activated charcoal (Sigma: HCl washed) in 50 mM NaH₂PO₄. GTPase activity was quantitated by measuring the free ³²P-orthophosphate in the cleared supernatant after centrifugation of the charcoal mix. GAP-stimulated Ras GTPase activity in the absence of competitors was 40-60 fmol Ras-GTP hydrolyzed; the 100% control value. In the absence of GAP, GTP hydrolysis was not detectable during the incubation period of the assay. Inhibitors of this assay block GAP-stimulated Ras GTPase without impairing intrinsic Ras GTPase, assayed in the absence of GAP following incubation at 24°C for one hour.
as §1

Row | Molecule | Maximum Solubility [1] [µM] | IC50* [2] | IC50 [2] [µM]
1 | CC[C@H](C)[C@H](NC(=O)[C@H](CC(C)C)NC(=O)[C@H](CCC(N)=O)NC(=O)[C@@H](NC(=O)[C@@H](NC(=O)[C@H](CC(C)C)NC(=O)[C@H](C)NC(=O)[C@@H](N)CO)[C@@H](C)O)[C@@H](C)CC)C(=O)N[C@@H](CCC(N)=O)C(=O)N[C@@H](CC(N)=O)C(=O)O [Ras 17-26] | 600 | no inhibition | 
2 | CC[C@H](C)[C@H](NC(=O)[C@H](CC(C)C)NC(=O)[C@H](CCC(N)=O)NC(=O)[C@@H](NC(=O)[C@@H](NC(=O)[C@H](CC(C)C)NC(=O)[C@H](C)NC(=O)[C@@H](N)CO)[C@@H](C)O)[C@@H](C)CC)C(=O)N[C@@H](CCC(N)=O)C(=O)N[C@@H](CC(N)=O)C(=O)N[C@@H](Cc1c[nH]cn1)C(=O)N[C@@H](Cc1ccccc1)C(=O)N[C@H](C(=O)N[C@@H](CC(=O)O)C(=O)N[C@@H](CCC(=O)O)C(=O)N[C@@H](Cc1ccc(O)cc1)C(=O)N[C@@H](CC(=O)O)C(=O)N1CCC[C@H]1C(=O)N[C@H](C(=O)N[C@H](C(=O)N[C@@H](CCC(=O)O)C(=O)N[C@@H](CC(=O)O)C(=O)N[C@@H](CO)C(=O)N[C@@H](Cc1ccc(O)cc1)C(=O)N[C@@H](CCCNC(=N)N)C(=O)N[C@@H](CCCCN)C(=O)N[C@@H](CCC(N)=O)C(=O)N[C@H](C(=O)O)C(C)C)[C@@H](C)CC)[C@@H](C)O)C(C)C [Ras 17-44] | 200 |  | 2.4
3 | CC[C@H](C)[C@H](NC(=O)[C@H](CC(C)C)NC(=O)[C@H](CCC(N)=O)NC(=O)[C@@H](NC(=O)[C@@H](NC(=O)[C@@H](N)CC(C)C)[C@@H](C)O)[C@@H](C)CC)C(=O)N[C@@H](CCC(N)=O)C(=O)N[C@H](CC(N)=O)C(=O)N[C@@H](Cc1c[nH]cn1)C(=O)N[C@@H](Cc1ccccc1)C(=O)N[C@H](C(=O)N[C@@H](CC(=O)O)C(=O)N[C@@H](CCC(=O)O)C(=O)N[C@@H](Cc1ccc(O)cc1)C(=O)O)C(C)C [Ras 19-32(D-Asn)] (H-LTIQLIQ[dN]HFVDEY-OH) | 12 |  | 0.2
4 | N[C@@H](CC(=O)O)C(=O)N[C@@H](CCC(=O)O)C(=O)N[C@@H](Cc1ccc(O)cc1)C(=O)O [Ras 30-32] (H-Asp-Glu-Tyr-OH) | 800 | no inhibition | 
5 | EELTIQLIQNHFVDEYD-NH2 [Ras 19-33(3)] | 225 |  | 50
6 | EYDPTIEDSYRKQ [Ras 31-43] | 446 | no inhibition | 
7 | IQLIQNHFVDEY [Ras 21-32] | 120 |  | 70
8 | LTIQIQNHFVDE [Ras 19-31(1)] | >1000 |  | 36
9 | LTIQLIQNHFVDE [Ras 19-31] | >1000 |  | 48
10 | LTIQLIQNHFVDEY [Ras 19-32] | 48 |  | 0.4
11 | LTIQLIQNHFVDEYD [Ras 19-33] | 23 |  | 1.4
12 | MRTRVVSGFVFLRLIGPAILNPR [GAP 888-910(Gly903)] | 800 |  | 
13 | NHFVDEY [Ras 26-32] | 800 |  | 350
14 | SALTIQLIQNHFV [Ras 17-29] | 20 | no inhibition | 
15 | TIQLIQNHFVDEY [Ras 20-32] | 110 |  | 18

Reference: patent EP0496162A2, “Peptide inhibitors of RAS-GAP interaction” (MERCK & CO. INC., priority 1990, dated 1992)
